How the values were obtained:
Assay type in all cases: cell-based, Streptococcus pneumoniae R6
Conditions in all cases: signal sequence (wild type or mutated) fused to BlpI-HiBiT cargo peptide; R6; CDM+; CSP, BlpC and RtgSA-C10 treatment; 3 independent experiments
ComAB = assay: HiBiT peptide secretion assay, ComAB+ strain
Experimental: (§1) FIG 5 RtgAB secretes different GG peptides from ComAB and BlpAB. R6 ComAB^−/BlpAB^−/RtgAB^− and single-transporter-positive ComAB^+, BlpAB^+, and RtgAB^+ strains expressing RtgC-HiBiT (A), RtgG-HiBiT (B), or BlpI-HiBiT (C) were grown in CDM+ to an OD620 of 0.05 and treated with 200 ng/ml CSP, 200 ng/ml BlpC, and 20 nM RtgSA-C10. Samples were taken every 30 min, and extracellular HiBiT signal was quantified. Data are presented as fold change values relative to the ComAB^−/BlpAB^−/RtgAB^− control. Red dashed lines represent fold change = 1 (no difference versus the control). Plots show means ± SEs from 3 independent experiments.
(§2) Cells were inoculated from starter cultures to an OD620 of 0.005 and grown in CDM+. […] Samples were taken for HiBiT quantification at appropriate time points. […] HiBiT signal was quantified by mixing samples with HiBiT extracellular detection reagent (N2421; Promega) at a 1:1 ratio and reading luminescence with a Synergy HTX plate reader. Samples were also taken for quantification of intracellular peptide; for endpoint assays, they were taken concurrently with the extracellular samples, and for time course assays, they were taken at the last time point. Extracellular peptide was removed from these samples by proteinase K digestion, and then the cells were lysed and HiBiT signal was quantified as described above. […]
(§3) and read 5 min following reagent addition. […]

RtgAB = assay: HiBiT peptide secretion assay, RtgAB+ strain
Experimental: FIG 3 RtgAB secretes RtgC and RtgG. R6 ComAB^−/BlpAB^−/RtgAB^− and ComAB^−/BlpAB^−/RtgAB^+ strains expressing RtgC-HiBiT (A) or RtgG-HiBiT (B) were grown in CDM+ to an OD620 of 0.05 and treated with 200 ng/ml CSP, 200 ng/ml BlpC, and 20 nM RtgSA-C10. CSP and BlpC were added to allow for comparison with ComAB^+ and BlpAB^+ strains in later experiments. Samples were taken every 30 min, and extracellular HiBiT signal was quantified. Data are presented as fold change values relative to the ComAB^−/BlpAB^−/RtgAB^− control. Red dashed lines represent fold change = 1 (no difference versus the control). […]
FIG 5 RtgAB secretes different GG peptides from ComAB and BlpAB. […] Samples were taken every 30 min, and extracellular HiBiT signal was quantified. […]
as §2, with “point.” for “point. Extracellular peptide was removed from these samples by proteinase K digestion, and then the cells were lysed and HiBiT signal was quantified as described above.”
as §3

BlpAB = assay: HiBiT peptide secretion assay, BlpAB+ strain
Experimental: as §1, §2, §3

MELILPNNYVDLEQEEMMYLDGG [SSRtgG]
secretion through ComAB, BlpI cargo peptide (ComAB): preventing its secretion through ComAB and BlpAB | secretion through RtgAB, BlpI cargo peptide (RtgAB): promotes secretion of the BlpI cargo peptide through RtgAB | secretion through BlpAB, BlpI cargo peptide (BlpAB): preventing its secretion through ComAB and BlpAB
